The text below walks through data of the NIST ThermoML archive (doi:10.1016/j.jct.2005.01.015).

A short description of the data set: activity coefficient (dimensionless); of the first substance listed, at infinite dilution; xn = mol fraction of the nth substance listed. The following applies: 101 kPa, Liquid, Chromatography, x1 = 0.

± gives the expanded uncertainty stated by the source.

Turning to `C#CCCCCC` [1-heptyne] + CCCCn1cc[n+](C)c1.COCCOCCOS(=O)(=O)[O-], the activity coefficient by setting is: (298.15 K) 7.37 ± 0.34; (303.15 K) 7.22 ± 0.33; (308.15 K) 7.42 ± 0.34.
Taken in the same sequence, the figures for `C#CCCCC` [1-hexyne] + CCCCn1cc[n+](C)c1.COCCOCCOS(=O)(=O)[O-] were 4.83 ± 0.22, 4.74 ± 0.22 and 4.91 ± 0.22.
Taken in the same sequence, the figures for `C#CCCCCCC` [1-octyne] + CCCCn1cc[n+](C)c1.COCCOCCOS(=O)(=O)[O-] were 11.7 ± 0.5, 11.4 ± 0.5 and 11.6 ± 0.5.
As to `c1ccccc1` [benzene] + CCCCn1cc[n+](C)c1.COCCOCCOS(=O)(=O)[O-], the activity coefficient reads like this: (298.15 K) 2.04 ± 0.09; (303.15 K) 2.02 ± 0.09; (308.15 K) 2.03 ± 0.09.
Consider `C1CCCCCC1` [cycloheptane] + CCCCn1cc[n+](C)c1.COCCOCCOS(=O)(=O)[O-], for which the activity coefficient was found to be 41.8 ± 1.9 (298.15 K), 38.2 ± 1.8 (303.15 K) and 36.4 ± 1.7 (308.15 K).
Taken in the same sequence, the figures for `C1CCCCC1` [cyclohexane] + CCCCn1cc[n+](C)c1.COCCOCCOS(=O)(=O)[O-] were 34.4 ± 1.6, 31.5 ± 1.5 and 30.3 ± 1.4.
Taken in the same sequence, the figures for `C1CCCC1` [cyclopentane] + CCCCn1cc[n+](C)c1.COCCOCCOS(=O)(=O)[O-] were 22.7 ± 1.1, 20.9 ± 1 and 20.5 ± 0.9.
In the same order, the values of `CCCCCCC` [heptane] + CCCCn1cc[n+](C)c1.COCCOCCOS(=O)(=O)[O-] are 111 ± 5.2, 100 ± 4.7 and 94.5 ± 4.4.
For `C=CCCCC` [hex-1-ene] + CCCCn1cc[n+](C)c1.COCCOCCOS(=O)(=O)[O-], the activity coefficient came to 35.1 ± 1.6 (298.15 K), 32.9 ± 1.5 (303.15 K) and 31.4 ± 1.5 (308.15 K).
Taken in the same sequence, the figures for `CCCCCC` [hexane] + CCCCn1cc[n+](C)c1.COCCOCCOS(=O)(=O)[O-] were 80.9 ± 3.8, 74.1 ± 3.5 and 71.1 ± 3.3.
In the same order, the values of `CO` [methanol] + CCCCn1cc[n+](C)c1.COCCOCCOS(=O)(=O)[O-] are 0.345 ± 0.035, 0.342 ± 0.035 and 0.337 ± 0.035.
In the same order, the values of `C=CCCCCCC` [oct-1-ene] + CCCCn1cc[n+](C)c1.COCCOCCOS(=O)(=O)[O-] are 74.9 ± 3.5, 69.9 ± 3.3 and 67.1 ± 3.1.
Regarding `CCCCCCCC` [octane] + CCCCn1cc[n+](C)c1.COCCOCCOS(=O)(=O)[O-], the activity coefficient amounted to 156 ± 7.3 (298.15 K), 140 ± 6.6 (303.15 K) and 130 ± 6.1 (308.15 K).
Consider `CCCCC` [pentane] + CCCCn1cc[n+](C)c1.COCCOCCOS(=O)(=O)[O-], for which the activity coefficient stood at 61.7 ± 2.9 (298.15 K), 57.1 ± 2.7 (303.15 K) and 54.9 ± 2.6 (308.15 K).
Taken in the same sequence, the figures for `ClC(Cl)(Cl)Cl` [tetrachloromethane] + CCCCn1cc[n+](C)c1.COCCOCCOS(=O)(=O)[O-] were 2.81 ± 0.13, 2.85 ± 0.13 and 2.91 ± 0.13.
In the same order, the values of `Cc1ccccc1` [toluene] + CCCCn1cc[n+](C)c1.COCCOCCOS(=O)(=O)[O-] are 3.72 ± 0.17, 3.69 ± 0.17 and 3.66 ± 0.17.
